From PMC6320368, “A T-cell receptor escape channel allows broad T-cell response to CD1b and membrane phospholipids” (Nature Communications, 2019)

Assays:
[1] = biological target: T1, CD1b (human CD1b monomer with β2m; CD1b tetramer) (Homo sapiens, UniProt P29016); assay: lipid-loaded CD1b tetramer staining of T-cell lines; type: cell-based; details: indirect read-out of lipid loading; CHAPS, citrate pH 7.4, 37 °C loading
T1 construct: soluble ectodomain with beta-2-microglobulin; His-tag purified; from High Five insect cells or HEK293S GnTI- (crystals, SPR); tetramer-facility monomers from U293 cells; with Beta-2-microglobulin
T1 sequence (P29016 20-296): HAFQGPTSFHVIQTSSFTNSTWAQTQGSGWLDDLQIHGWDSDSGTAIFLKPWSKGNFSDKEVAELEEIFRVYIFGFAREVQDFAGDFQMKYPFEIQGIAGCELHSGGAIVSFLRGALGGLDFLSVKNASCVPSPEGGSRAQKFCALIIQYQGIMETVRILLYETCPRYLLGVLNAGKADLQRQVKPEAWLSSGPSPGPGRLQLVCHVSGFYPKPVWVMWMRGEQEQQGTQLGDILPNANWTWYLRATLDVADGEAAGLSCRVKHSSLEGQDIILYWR
T1 sequence (P61769 21-119 partner): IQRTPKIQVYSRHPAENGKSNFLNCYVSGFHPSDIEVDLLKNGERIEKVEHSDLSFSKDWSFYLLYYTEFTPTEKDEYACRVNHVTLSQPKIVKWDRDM

[2] = biological target: T1, CD1b (human CD1b monomer with β2m; CD1b tetramer); assay: SPR of BC8B TCR on lipid-loaded CD1b; tetramer staining; type: binding; details: indirect read-out of lipid loading; pH 8.0, 25 °C

| Structure (SMILES) | lipid-loaded CD1b tetramer staining of T-cell lines [1] | SPR of BC8B TCR on lipid-loaded CD1b; tetramer staining [2] |
| --- | --- | --- |
| CCCCCCCC/C=C\CCCCCCCC(=O)OC[C@@H](O)COP(=O)(O)O [LPA, lysophosphatidic acid] | specifically stained with phospholipids carrying small head groups, such as PG and LPA |  |
| CCCCCCCCCCCCC/C=C/[C@@H](O)[C@H](COP(=O)([O-])OCC[N+](C)(C)C)NC(=O)CCCCCCCCCCCCCCC [SM, sphingomyelin] |  | The BC8B TCR detectably interacted with CD1b presenting the sphingolipid antigens, SM and sulfatide |
